Source: patent US12410160B2 (Gilead Sciences, Inc., priority 2021, dated 2025)

Key:
human KHK-A = human KHK-A (Homo sapiens (Human), UniProt P50053); experiment: KHK Biochemical Assay (IC50), ADP-Glo, KHK-A; details: ADP-Glo; average of at least two separate assays
How it was run: (§1)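 His-tagged enzyme expressed in BL21 (DE3), Ni-NTA purified. Compounds, serially diluted 1:3 in DMSO, pre-incubated 30 min with enzyme in 50 mM Hepes pH 7.4, 140 mM KCl, 5 mM MgCl2, 0.01% Triton-X, then ATP and fructose added; 4 h at room temperature. ADP formation read by ADP-Glo luminescence.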

human KHK-C = human KHK-C (Homo sapiens (Human), UniProt P50053); experiment: KHK Biochemical Assay (IC50), ADP-Glo, KHK-C; details: ADP-Glo; average of at least two separate assays
How it was run: as §1

Chain of human KHK-C (P50053 whole entry): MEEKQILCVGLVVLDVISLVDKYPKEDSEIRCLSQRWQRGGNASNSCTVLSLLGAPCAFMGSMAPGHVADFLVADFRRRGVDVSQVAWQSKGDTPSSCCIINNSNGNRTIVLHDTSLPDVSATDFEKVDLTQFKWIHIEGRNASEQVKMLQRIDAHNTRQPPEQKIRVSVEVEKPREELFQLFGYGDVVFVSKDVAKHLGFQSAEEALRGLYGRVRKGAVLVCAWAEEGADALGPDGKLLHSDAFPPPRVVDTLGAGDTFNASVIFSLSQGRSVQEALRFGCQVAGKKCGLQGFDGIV
Chain of human KHK-A (P50053 other isoform, or with tags, fused parts or gaps): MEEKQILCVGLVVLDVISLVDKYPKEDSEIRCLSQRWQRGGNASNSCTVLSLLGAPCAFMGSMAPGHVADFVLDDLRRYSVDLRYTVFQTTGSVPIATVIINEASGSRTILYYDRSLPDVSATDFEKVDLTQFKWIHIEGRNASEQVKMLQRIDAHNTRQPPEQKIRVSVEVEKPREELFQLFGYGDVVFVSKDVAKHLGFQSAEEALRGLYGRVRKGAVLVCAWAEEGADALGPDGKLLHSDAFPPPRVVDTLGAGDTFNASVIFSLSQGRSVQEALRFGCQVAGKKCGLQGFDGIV

| IC50 (human KHK-A) | IC50 (human KHK-C) | Compound |
| --- | --- | --- |
| 0.191 µM | 0.224 µM | C[C@H]1CCN1c1nc2c(c(-c3cccc(S(C)(=N)=O)n3)n1)CCC2 (stereo partly drawn) [Example 860, imino(methyl)(6-(2-((S)-2-methylazetidin-1-yl)-6,7-dihydro-5H-cyclopenta[d]pyrimidin-4-yl)pyridin-2-yl)-λ^6-sulfanone] |
| 0.0049 µM | 0.0152 µM | CCS(=N)(=O)c1cc(-c2nc(N3CC[C@@H]3C)nc3c2CCC3)ccc1OC (stereo partly drawn) [Example 861, ethyl(imino)(2-methoxy-5-(2-((S)-2-methylazetidin-1-yl)-6,7-dihydro-5H-cyclopenta[d]pyrimidin-4-yl)phenyl)-λ^6-sulfanone] |
| 0.0481 µM | 0.0764 µM | COc1cc(-c2nc(N3CC[C@@H]3C)nc3c2CCC3)ccc1CS(N)(=O)=O [Example 862, (S)-(2-methoxy-4-(2-(2-methylazetidin-1-yl)-6,7-dihydro-5H-cyclopenta[d]pyrimidin-4-yl)phenyl)methanesulfonamide] |
| > 1 µM | > 1 µM | C[C@H]1CCN1c1nc2c(c(-c3cccc(Sc4ccc(C#N)cc4)c3)n1)CCC2 [Example 863, (S)-4-((3-(2-(2-methylazetidin-1-yl)-6,7-dihydro-5H-cyclopenta[d]pyrimidin-4-yl)phenyl)thio)benzonitrile] |
| 0.01 µM | 0.0063 µM | CCc1cc(-c2nc(N3CC[C@@H]3C)nc3c2CCC3)ccc1C1(N)COC1 [Example 864, (S)-3-(2-ethyl-4-(2-(2-methylazetidin-1-yl)-6,7-dihydro-5H-cyclopenta[d]pyrimidin-4-yl)phenyl)oxetan-3-amine] |
| 0.0254 µM | 0.0173 µM | C[C@H]1CCN1c1nc2c(c(-c3ccc4c(c3)C3(CCC3)CNC4=O)n1)CCC2 [Example 865, (S)-6′-(2-(2-methylazetidin-1-yl)-6,7-dihydro-5H-cyclopenta[d]pyrimidin-4-yl)-2′,3′-dihydro-1′H-spiro[cyclobutane-1,4′-isoquinolin]-1′-one] |
| 0.0189 µM | 0.0277 µM | C[C@H]1CCN1c1nc2c(c(-c3cc4c(s3)C(=O)NC(C)(C)N4)n1)CCC2 [Example 866, (S)-2,2-dimethyl-6-(2-(2-methylazetidin-1-yl)-6,7-dihydro-5H-cyclopenta[d]pyrimidin-4-yl)-2,3-dihydrothieno[3,2-d]pyrimidin-4(1H)-one] |
| > 1 µM | > 1 µM | C[C@H]1CCN1c1nc2c(c(-c3cc4c(N)n[nH]c4cn3)n1)CCC2 [Example 867, (S)-5-(2-(2-methylazetidin-1-yl)-6,7-dihydro-5H-cyclopenta[d]pyrimidin-4-yl)-1H-pyrazolo[3,4-c]pyridin-3-amine] |
| 0.158 µM | 0.23 µM | C[C@H]1CCN1c1nc2c(c(-c3cc4c(N)nn(C(=O)OC(C)(C)C)c4cn3)n1)CCC2 [Example 868, tert-butyl (S)-3-amino-5-(2-(2-methylazetidin-1-yl)-6,7-dihydro-5H-cyclopenta[d]pyrimidin-4-yl)-1H-pyrazolo[3,4-c]pyridine-1-carboxylate] |
| 0.0059 µM | 0.0216 µM | COCCS(=N)(=O)c1cc(-c2nc(N3CC[C@@H]3C)nc3c2CCC3)ccc1OC (stereo partly drawn) [Example 869, imino(2-methoxy-5-(2-((S)-2-methylazetidin-1-yl)-6,7-dihydro-5H-cyclopenta[d]pyrimidin-4-yl)phenyl)(2-methoxyethyl)-λ^6-sulfanone] |
| 0.0109 µM | 0.0695 µM | C[C@H]1CCN1c1nc2c(c(-c3ccc4c(c3)C3(CC3)C(=O)NC4=O)n1)CCC2 [Example 870, (S)-6′-(2-(2-methylazetidin-1-yl)-6,7-dihydro-5H-cyclopenta[d]pyrimidin-4-yl)-1′H-spiro[cyclopropane-1,4′-isoquinoline]-1′,3′(2′H)-dione] |
| 0.0504 µM | 0.0234 µM | C[C@H]1CCN1c1nc2c(c(-c3ccc(-c4noc(=O)[nH]4)cc3)n1)CCC2 [Example 871, (S)-3-(4-(2-(2-methylazetidin-1-yl)-6,7-dihydro-5H-cyclopenta[d]pyrimidin-4-yl)phenyl)-1,2,4-oxadiazol-5(4H)-one] |
| 0.027 µM | 0.0289 µM | C[C@H]1CCN1c1nc2c(c(-c3cccc(-c4noc(=O)[nH]4)c3)n1)CCC2 [Example 872, (S)-3-(3-(2-(2-methylazetidin-1-yl)-6,7-dihydro-5H-cyclopenta[d]pyrimidin-4-yl)phenyl)-1,2,4-oxadiazol-5(4H)-one] |
| 0.0241 µM | 0.0236 µM | C[C@H]1CCN1c1nc2c(c(-c3cccc(S(=N)(N)=O)c3)n1)CCC2 (stereo partly drawn) [Example 873, 3-(2-((S)-2-methylazetidin-1-yl)-6,7-dihydro-5H-cyclopenta[d]pyrimidin-4-yl)benzenesulfonimidamide] |
| 0.0884 µM | 0.0723 µM | C[C@H]1CCN1c1nc2c(c(-c3ccc(S(=N)(N)=O)cc3)n1)CCC2 (stereo partly drawn) [Example 874, 4-(2-((S)-2-methylazetidin-1-yl)-6,7-dihydro-5H-cyclopenta[d]pyrimidin-4-yl)benzenesulfonimidamide] |
| 0.067 µM | 0.058 µM | C[C@H]1CCN1c1nc2c(c(-c3ccc4c(c3)C3(CC4)CNC(=O)C3)n1)CCC2 (stereo partly drawn) [Example 875, 6-(2-((S)-2-methylazetidin-1-yl)-6,7-dihydro-5H-cyclopenta[d]pyrimidin-4-yl)-2,3-dihydrospiro[indene-1,3′-pyrrolidin]-5′-one] |
| 0.0704 µM | 0.0994 µM | C[C@H]1CCN1c1nc2c(c(-c3cccc(-c4nnn[nH]4)c3)n1)CCC2 [Example 876, (S)-4-(3-(1H-tetrazol-5-yl)phenyl)-2-(2-methylazetidin-1-yl)-6,7-dihydro-5H-cyclopenta[d]pyrimidine] |
| 0.186 µM | 0.208 µM | C[C@H]1CCN1c1nc2c(c(-c3cccc(S(=N)(=O)CC(=O)N4CCC4)c3)n1)CCC2 (stereo partly drawn) [Example 877, (2-(azetidin-1-yl)-2-oxoethyl)(imino)(3-(2-((S)-2-methylazetidin-1-yl)-6,7-dihydro-5H-cyclopenta[d]pyrimidin-4-yl)phenyl)-λ^6-sulfanone] |
| 0.0378 µM | 0.0869 µM | C[C@H]1CCN1c1nc2c(c(-c3cccc(S(=N)(=O)c4ccccc4)c3)n1)CCC2 (stereo partly drawn) [Example 878, imino(3-(2-((S)-2-methylazetidin-1-yl)-6,7-dihydro-5H-cyclopenta[d]pyrimidin-4-yl)phenyl)(phenyl)-λ^6-sulfanone] |
| 0.0416 µM | 0.0467 µM | C[C@H]1CCN1c1nc2c(c(-c3cccc(S(=N)(=O)c4ccc(C#N)cc4)c3)n1)CCC2 (stereo partly drawn) [Example 879, 4-(3-(2-((S)-2-methylazetidin-1-yl)-6,7-dihydro-5H-cyclopenta[d]pyrimidin-4-yl)phenylsulfonimidoyl)benzonitrile] |
| 0.046 µM | 0.0705 µM | COc1ccc(-c2nc(N3CC[C@@H]3C)nc3c2CCC3)cc1S(=N)(=O)CCN(C)C(C)=O (stereo partly drawn) [Example 881, N-(2-(2-methoxy-5-(2-((S)-2-methylazetidin-1-yl)-6,7-dihydro-5H-cyclopenta[d]pyrimidin-4-yl)phenylsulfonimidoyl)ethyl)-N-methylacetamide] |
| 0.021 µM | 0.0146 µM | C[C@H]1CCN1c1nc2c(c(-c3ccc4c(c3)C(NS(C)(=O)=O)CCO4)n1)CCC2 (stereo partly drawn) [Example 883, N-(6-(2-((S)-2-methylazetidin-1-yl)-6,7-dihydro-5H-cyclopenta[d]pyrimidin-4-yl)chroman-4-yl)methanesulfonamide] |
| 0.0962 µM | 0.0461 µM | CCC1Oc2cc(-c3nc(N4CC[C@@H]4C)nc4c3CCC4)ccc2C1NS(C)(=O)=O (stereo partly drawn) [Example 884, N-(2-ethyl-6-(2-((S)-2-methylazetidin-1-yl)-6,7-dihydro-5H-cyclopenta[d]pyrimidin-4-yl)-2,3-dihydrobenzofuran-3-yl)methanesulfonamide] |
| 0.15 µM | 0.0261 µM | C[C@H]1CCN1c1nc2c(c(-c3ccc4c(c3)CC(F)C4NS(C)(=O)=O)n1)CCC2 (stereo partly drawn) [Example 885, N-(2-fluoro-5-(2-((S)-2-methylazetidin-1-yl)-6,7-dihydro-5H-cyclopenta[d]pyrimidin-4-yl)-2,3-dihydro-1H-inden-1-yl)methanesulfonamide] |
| 0.0271 µM | 0.0132 µM | C[C@@H]1Oc2cc(-c3nc(N4CC[C@@H]4C)nc4c3CCC4)ccc2[C@H]1NS(C)(=O)=O [Example 886, N-((2s,3r)-2-methyl-6-(2-((S)-2-methylazetidin-1-yl)-6,7-dihydro-5H-cyclopenta[d]pyrimidin-4-yl)-2,3-dihydrobenzofuran-3-yl)methanesulfonamide] |
| 0.0444 µM | 0.0105 µM | C[C@@H]1Oc2cc(-c3nc(N4CC[C@@H]4C)nc4c3CCC4)ccc2[C@@H]1NS(C)(=O)=O [Example 887, N-((2s,3s)-2-methyl-6-(2-((S)-2-methylazetidin-1-yl)-6,7-dihydro-5H-cyclopenta[d]pyrimidin-4-yl)-2,3-dihydrobenzofuran-3-yl)methanesulfonamide] |
| 0.0513 µM | 0.0041 µM | C[C@H]1CCN1c1nc2c(c(-c3ccc4c(c3)C(O)CC4NS(C)(=O)=O)n1)CCC2 (stereo partly drawn) [Example 888, N-(3-hydroxy-5-(2-((S)-2-methylazetidin-1-yl)-6,7-dihydro-5H-cyclopenta[d]pyrimidin-4-yl)-2,3-dihydro-1H-inden-1-yl)methanesulfonamide] |
| 0.0988 µM | 0.0171 µM | Cc1cc(-c2nc(N3CC[C@@H]3C)nc3c2CCC3)cc2c1C(NS(C)(=O)=O)CO2 (stereo partly drawn) [Example 889, N-(4-methyl-6-(2-((S)-2-methylazetidin-1-yl)-6,7-dihydro-5H-cyclopenta[d]pyrimidin-4-yl)-2,3-dihydrobenzofuran-3-yl)methanesulfonamide] |
| 0.141 µM | 0.0608 µM | C[C@H]1CCN1c1nc2c(c(-c3ccc4c(c3)CCCC4NS(C)(=O)=O)n1)CCC2 (stereo partly drawn) [Example 890, N-(6-(2-((S)-2-methylazetidin-1-yl)-6,7-dihydro-5H-cyclopenta[d]pyrimidin-4-yl)-1,2,3,4-tetrahydronaphthalen-1-yl)methanesulfonamide] |
